Assay results as given in PubChem BioAssay (NCI).
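Following 48 hours of exposure in 96-well plates, responses at five concentrations were used to interpolate endpoints linearly. TGI marks complete inhibition of growth.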

What was measured:
Assay in all cases: NCI tumour cell line growth inhibition, 48 h
786-0 renal = tested on: 786-0 renal
A498 renal = tested on: A498 renal
A549 NSCLC = tested on: A549 NSCLC
ACHN renal = tested on: ACHN renal
BT-549 breast = tested on: BT-549 breast
CAKI-1 renal = tested on: CAKI-1 renal
CCRF-CEM leukemia = tested on: CCRF-CEM leukemia
COLO 205 colon = tested on: COLO 205 colon
DU-145 prostate = tested on: DU-145 prostate
EKVX NSCLC = tested on: EKVX NSCLC
HCT-116 colon = tested on: HCT-116 colon
HCT-15 colon = tested on: HCT-15 colon
HL-60(TB) leukemia = tested on: HL-60(TB) leukemia
HOP-62 NSCLC = tested on: HOP-62 NSCLC
HOP-92 NSCLC = tested on: HOP-92 NSCLC
HS 578T breast = tested on: HS 578T breast
HT29 colon = tested on: HT29 colon
IGROV1 ovarian = tested on: IGROV1 ovarian
KM12 colon = tested on: KM12 colon
LOX IMVI melanoma = tested on: LOX IMVI melanoma
M14 melanoma = tested on: M14 melanoma
MALME-3M melanoma = tested on: MALME-3M melanoma
MCF7 breast = tested on: MCF7 breast
MDA-MB-231 breast = tested on: MDA-MB-231 breast
MDA-MB-435 = tested on: MDA-MB-435
MDA-N = tested on: MDA-N
MOLT-4 leukemia = tested on: MOLT-4 leukemia
NCI-H226 lung = tested on: NCI-H226 lung
NCI-H23 lung = tested on: NCI-H23 lung
NCI-H460 lung = tested on: NCI-H460 lung
NCI-H522 lung = tested on: NCI-H522 lung
NCI/ADR-RES ovarian = tested on: NCI/ADR-RES ovarian
OVCAR-3 ovarian = tested on: OVCAR-3 ovarian
OVCAR-4 ovarian = tested on: OVCAR-4 ovarian
OVCAR-5 ovarian = tested on: OVCAR-5 ovarian
OVCAR-8 ovarian = tested on: OVCAR-8 ovarian
PC-3 prostate = tested on: PC-3 prostate
RPMI-8226 leukemia = tested on: RPMI-8226 leukemia
RXF 393 renal = tested on: RXF 393 renal
SF-268 CNS = tested on: SF-268 CNS
SF-295 CNS = tested on: SF-295 CNS
SF-539 CNS = tested on: SF-539 CNS
SK-MEL-2 melanoma = tested on: SK-MEL-2 melanoma
SK-MEL-28 melanoma = tested on: SK-MEL-28 melanoma
SK-MEL-5 melanoma = tested on: SK-MEL-5 melanoma
SK-OV-3 ovarian = tested on: SK-OV-3 ovarian
SN12C renal = tested on: SN12C renal
SNB-19 CNS = tested on: SNB-19 CNS
SNB-75 CNS = tested on: SNB-75 CNS
SR leukemia = tested on: SR leukemia
SW-620 colon = tested on: SW-620 colon
T-47D breast = tested on: T-47D breast
TK-10 renal = tested on: TK-10 renal
U251 CNS = tested on: U251 CNS
UACC-257 melanoma = tested on: UACC-257 melanoma
UACC-62 melanoma = tested on: UACC-62 melanoma
UO-31 renal = tested on: UO-31 renal
HCC-2998 colon = tested on: HCC-2998 colon
K-562 leukemia = tested on: K-562 leukemia

SMILES: CC(C)(C)OC(=O)NCC(c1c[nH]c2ccccc12)c1c[nH]c2ccccc12
- TGI (786-0 renal): 32 µM
- TGI (A498 renal): > 100 µM
- TGI (A549 NSCLC): 29.2 µM
- TGI (ACHN renal): > 100 µM
- TGI (BT-549 breast): 35.1 µM
- TGI (CAKI-1 renal): 29.1 µM
- TGI (CCRF-CEM leukemia): 44.7 µM
- TGI (COLO 205 colon): 29.1 µM
- TGI (DU-145 prostate): 29 µM
- TGI (EKVX NSCLC): 26.2 µM
- TGI (HCT-116 colon): 30.4 µM
- TGI (HCT-15 colon): 53.5 µM
- TGI (HL-60(TB) leukemia): 31.8 µM
- TGI (HOP-62 NSCLC): 37 µM
- TGI (HOP-92 NSCLC): 27.5 µM
- TGI (HS 578T breast): 57.8 µM
- TGI (HT29 colon): 29.8 µM
- TGI (IGROV1 ovarian): 26.3 µM
- TGI (KM12 colon): 28.6 µM
- TGI (LOX IMVI melanoma): 35.3 µM
- TGI (M14 melanoma): 29.1 µM
- TGI (MALME-3M melanoma): 33.2 µM
- TGI (MCF7 breast): > 100 µM
- TGI (MDA-MB-231 breast): 31.9 µM
- TGI (MDA-MB-435): 31.7 µM
- TGI (MDA-N): 35.3 µM
- TGI (MOLT-4 leukemia): 29.9 µM
- TGI (NCI-H226 lung): 44 µM
- TGI (NCI-H23 lung): 36.4 µM
- TGI (NCI-H460 lung): 30.1 µM
- TGI (NCI-H522 lung): 39.3 µM
- TGI (NCI/ADR-RES ovarian): 51.3 µM
- TGI (OVCAR-3 ovarian): 30.6 µM
- TGI (OVCAR-4 ovarian): 26.5 µM
- TGI (OVCAR-5 ovarian): 31.4 µM
- TGI (OVCAR-8 ovarian): 34.4 µM
- TGI (PC-3 prostate): 29.5 µM
- TGI (RPMI-8226 leukemia): 22.2 µM
- TGI (RXF 393 renal): 17.7 µM
- TGI (SF-268 CNS): 33.6 µM
- TGI (SF-295 CNS): 32.8 µM
- TGI (SF-539 CNS): 35.4 µM
- TGI (SK-MEL-2 melanoma): 32.9 µM
- TGI (SK-MEL-28 melanoma): 35.3 µM
- TGI (SK-MEL-5 melanoma): 26.7 µM
- TGI (SK-OV-3 ovarian): 33.5 µM
- TGI (SN12C renal): 32.7 µM
- TGI (SNB-19 CNS): 31.1 µM
- TGI (SNB-75 CNS): 28.1 µM
- TGI (SR leukemia): 32.4 µM
- TGI (SW-620 colon): 41 µM
- TGI (T-47D breast): 36.5 µM
- TGI (TK-10 renal): 28.9 µM
- TGI (U251 CNS): 29.8 µM
- TGI (UACC-257 melanoma): 28.6 µM
- TGI (UACC-62 melanoma): > 100 µM
- TGI (UO-31 renal): 27.4 µM

SMILES: C[C@@H]1C[C@@H]2OC(=O)[C@]3(C)[C@H]2[C@@H](OC3(C)O)[C@]2(C)C(=O)C=C[C@@H]12 (some centres undefined)
- TGI (786-0 renal): > 100 µM
- TGI (A498 renal): 70.6 µM
- TGI (A549 NSCLC): > 100 µM
- TGI (ACHN renal): 45 µM
- TGI (BT-549 breast): 23.1 µM
- TGI (CAKI-1 renal): 62.1 µM
- TGI (CCRF-CEM leukemia): 31.8 µM
- TGI (COLO 205 colon): 32 µM
- TGI (DU-145 prostate): > 100 µM
- TGI (EKVX NSCLC): 49.2 µM
- TGI (HCC-2998 colon): 35.1 µM
- TGI (HCT-116 colon): 37.6 µM
- TGI (HCT-15 colon): 30.2 µM
- TGI (HL-60(TB) leukemia): 11.2 µM
- TGI (HOP-62 NSCLC): > 100 µM
- TGI (HOP-92 NSCLC): 38.9 µM
- TGI (HS 578T breast): > 100 µM
- TGI (HT29 colon): 35.1 µM
- TGI (K-562 leukemia): 2.69 µM
- TGI (KM12 colon): 58.7 µM
- TGI (LOX IMVI melanoma): 43 µM
- TGI (M14 melanoma): 41.8 µM
- TGI (MALME-3M melanoma): 30.7 µM
- TGI (MCF7 breast): 32.7 µM
- TGI (MDA-MB-231 breast): 64.5 µM
- TGI (MDA-MB-435): 66.9 µM
- TGI (MDA-N): 35.5 µM
- TGI (MOLT-4 leukemia): 39.7 µM
- TGI (NCI-H226 lung): > 100 µM
- TGI (NCI-H23 lung): 70 µM
- TGI (NCI-H522 lung): 23.8 µM
- TGI (NCI/ADR-RES ovarian): > 100 µM
- TGI (OVCAR-3 ovarian): 44.3 µM
- TGI (OVCAR-4 ovarian): 35.9 µM
- TGI (OVCAR-5 ovarian): 41 µM
- TGI (OVCAR-8 ovarian): > 100 µM
- TGI (PC-3 prostate): > 100 µM
- TGI (RPMI-8226 leukemia): 17.7 µM
- TGI (RXF 393 renal): 46 µM
- TGI (SF-268 CNS): > 100 µM
- TGI (SF-295 CNS): > 100 µM
- TGI (SF-539 CNS): > 100 µM
- TGI (SK-MEL-2 melanoma): 54.7 µM
- TGI (SK-MEL-28 melanoma): 45 µM
- TGI (SK-MEL-5 melanoma): 51.2 µM
- TGI (SK-OV-3 ovarian): > 100 µM
- TGI (SN12C renal): 38.1 µM
- TGI (SNB-19 CNS): > 100 µM
- TGI (SNB-75 CNS): > 100 µM
- TGI (SR leukemia): 28.5 µM
- TGI (SW-620 colon): 51.9 µM
- TGI (T-47D breast): 44.5 µM
- TGI (TK-10 renal): > 100 µM
- TGI (U251 CNS): > 100 µM
- TGI (UACC-257 melanoma): 50.2 µM
- TGI (UACC-62 melanoma): 31.6 µM
- TGI (UO-31 renal): > 100 µM
